Test results: patent publication US6090955A (priority 1994, dated 2000)

Tests used:
[1] = cited from earlier work
microtubuli = settings: cited from earlier work
[2] = dilution of Cremophor/alcohol solutions with physiological salt solution; cited from earlier work
P388 cells = settings: in vitro, free vs liposome-encapsulated vs nanoparticular taxol; cited from earlier work
B16 melanoma = settings: implanted B16 melanoma; cited from earlier work
P388 leukemia = settings: implanted P388 leukemia; cited from earlier work
P388 = settings: 12.5 mg/kg/4 days; free vs liposomal; cited from earlier work
human breast tumors = settings: cited from earlier work
[3] = Tolerability in MaTu-bearing nude mice (toxic deaths, body weight change, hemotoxicity); type: in vivo, Ncr:nu/nu female mice; settings: i.p., 12.5 mg/kg/inj., treatment d 10-13
Source text: |Animals: Ncr:nu/nu female

human glioblastoma = settings: 12.5 mg/kg/4 days; cited from earlier work

## polyethoxylated castor oil [Cremophor]
[1]
  toxicities observed in man: increased formation of chylomicrons

## CC(=O)O[C@H]1C(=O)[C@@]2(C)[C@H]([C@H](OC(=O)c3ccccc3)[C@]3(O)C[C@H](OC(=O)[C@H](O)[C@@H](NC(=O)c4ccccc4)c4ccccc4)C(C)=C1C3(C)C)[C@]1(OC(C)=O)CO[C@@H]1C[C@@H]2O [Taxol]
microtubuli
  depolymerization of microtubuli: stabilizes the microtubuli by inhibiting their depolymerization
microtubuli; during the whole of the cell cycle
  arrangement and bundling of microtubuli: abnormal arrangement and bundling of microtubuli
microtubuli; from tubuli dimers
  polymerization of microtubuli: promotes the polymerization of microtubuli
[2]
  stability in physiological salt solution: not more than 24 hours
P388 cells
  growth inhibition of P388 cells: inhibited equally by all three forms of the drug
B16 melanoma
  antineoplastic activity: clear antineoplastic activity
P388 leukemia
  antineoplastic activity: clear antineoplastic activity
P388
  therapeutic effectiveness on P388 in vivo: comparable in their therapeutic effectiveness
Human breast tumors
  antineoplastic activity: clear antineoplastic activity
[3]
  BWC (%) d10-13: -1%
[3]; 8 nude mice
  Toxic deaths (d): day of death: 16 days
  Toxic deaths (d): number: 1
Human glioblastoma
  decrease in tumor growth: significant decrease in tumor growth
